# From ChEMBL document CHEMBL5042547, “Activable Targeted Protein Degradation Platform Based on Light-triggered Singlet Oxygen” (J Med Chem, 2022)
# The source made the active and inactive calls. The calls are words filed in the database; no cut-off is given here.
# Legend:
# [1] = biological target: T1, Estrogen receptor (Homo sapiens) (UniProt P03372); assay: Induction of degradation of human ERalpha in human MCF7 cells at 0.01 to 1 uM incubated for 6 hrs followed by irradiated light of 460 nm for 45 mins measured after 3 hrs by immunoblot analysis; type: cell-based; settings: dose 0.01-1 µM, time 9.0 hrs
# T1 sequence (whole entry): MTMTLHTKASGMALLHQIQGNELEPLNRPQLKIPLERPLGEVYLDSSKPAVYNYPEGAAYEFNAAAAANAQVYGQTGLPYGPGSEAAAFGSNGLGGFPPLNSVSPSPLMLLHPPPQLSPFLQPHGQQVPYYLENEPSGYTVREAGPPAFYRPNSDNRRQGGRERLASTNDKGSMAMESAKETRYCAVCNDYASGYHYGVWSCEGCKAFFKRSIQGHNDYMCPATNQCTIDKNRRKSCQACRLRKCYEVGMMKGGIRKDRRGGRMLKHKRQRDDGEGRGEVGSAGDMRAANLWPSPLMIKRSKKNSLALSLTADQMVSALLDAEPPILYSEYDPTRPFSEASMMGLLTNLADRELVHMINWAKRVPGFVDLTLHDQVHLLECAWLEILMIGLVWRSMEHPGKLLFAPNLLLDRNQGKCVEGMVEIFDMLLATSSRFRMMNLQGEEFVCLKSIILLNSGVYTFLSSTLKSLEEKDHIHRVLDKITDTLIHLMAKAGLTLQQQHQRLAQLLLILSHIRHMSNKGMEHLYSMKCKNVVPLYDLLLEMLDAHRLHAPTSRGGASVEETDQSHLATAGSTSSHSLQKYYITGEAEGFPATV
# MCF7 [2] = assay: Induction of cell cycle arrest in human MCF7 cells assessed as accumulation of cells at G1 phase at 1 uM after irradiation for 30 mins by propidium iodide based flow cytometry analysis; type: functional
# MCF7 [3] = assay: Induction of apoptosis in human MCF7 cells at 1 uM after irradiation for 30 mins annexin V-FITC/PI double staining method; type: functional, cell-based
# MCF7 [4] = assay: Antiproliferative activity against human MCF7 cells under dark condition; type: functional, cell-based
# [5] = biological target: T1, Estrogen receptor (Homo sapiens); assay: Induction of degradation of human ERalpha in human MCF7 cells by generation of singlet oxygen at 1 uM in presence of glutathione by fluorescent probe based DCFH-DA assay; type: cell-based
# [6] = Drug uptake in human MCF7 cells assessed as peak mean fluorescence intensity measured after 6 to 12hrs by cytometric analysis; type: ADME, cell-based
# Estrogen receptor [7] = biological target: T2, Estrogen receptor (Homo sapiens, UniProt P03372); assay: Binding affinity to human ERalpha by competitive fluorometric receptor binding assay
# T2 sequence (P03372 whole entry): T1 sequence (whole entry)
# MCF7 [8] = assay: Antiproliferative activity against human MCF7 cells assessed as cell viability at irradiation for 45 mins daily for 3 days; type: functional, cell-based; settings: MCF7, light or radiation study
# [9] = biological target: T1, Estrogen receptor (Homo sapiens); assay: Induction of degradation of human ERalpha by generation of singlet oxygen incubated for 3 hrs followed by irradiated with 460 +/- 10 nm LED light for 30 mins by circular dichroism spectroscopy; settings: time 210.0 min
# [10] = biological target: T1, Estrogen receptor (Homo sapiens); assay: Induction of degradation of human ERalpha by generation of singlet oxygen incubated for 3 hrs followed by irradiated with 460 +/- 10 nm LED light for 15 mins by circular dichroism spectroscopy; settings: time 195.0 min
# [11] = biological target: T1, Estrogen receptor (Homo sapiens); assay: Binding affinity to human ERalpha assessed as change in enthalpy by isothermal titration calorimetry
# [12] = biological target: T1, Estrogen receptor (Homo sapiens); assay: Binding affinity to human ERalpha assessed as change in entropy by isothermal titration calorimetry
# [13] = biological target: T1, Estrogen receptor (Homo sapiens); assay: Induction of degradation of human ERalpha irradiated with 460 +/- 10 nm LED light for 15 mins by gel electrophoresis
# [14] = biological target: T1, Estrogen receptor (Homo sapiens); assay: Induction of degradation of human ERalpha irradiated with 460 +/- 10 nm LED light for 30 to 45 mins by gel electrophoresis; settings: time 30-45 min
# [15] = biological target: T1, Estrogen receptor (Homo sapiens); assay: Induction of degradation of human ERalpha in human MCF7 cells at 1 uM incubated for 1 to 6 hrs followed by irradiated light of 460 nm for 30 mins measured after 3 hrs by immunoblot analysis; type: cell-based; settings: time 4.5-9.5 hrs
# [16] = biological target: T1, Estrogen receptor (Homo sapiens); assay: Induction of degradation of human ERalpha in human MCF7 cells at 1 uM incubated for 1 to 12 hrs in dark after 3 hrs by immunoblot analysis; type: cell-based; settings: time 4-15 hrs
# [17] = biological target: T1, Estrogen receptor (Homo sapiens); assay: Induction of degradation of human ERalpha in human MCF7 cells by generation of singlet oxygen at 1 uM in presence of dithiothreitol by fluorescent probe based DCFH-DA assay; type: cell-based
# [18] = biological target: T1, Estrogen receptor (Homo sapiens); assay: Induction of degradation of human ERalpha in human MCF7 cells by generation of singlet oxygen at 1 uM in presence of N-acetyl-L-cysteine by fluorescent probe based DCFH-DA assay; type: cell-based
# [19] = biological target: T1, Estrogen receptor (Homo sapiens); assay: Induction of degradation of human ERalpha in MCF7 cells at 0.1 uM incubated for 6 hrs followed by irradiation for 30 min measured after 2 hrs; type: cell-based; settings: time 8.5 hrs
# [20] = biological target: T1, Estrogen receptor (Homo sapiens); assay: Induction of degradation of human ERalpha in MCF7 cells at 0.1 uM incubated for 6 hrs followed by irradiation for 30 min measured after 2 to 8 hrs; type: cell-based; settings: time 8.5-14.5 hrs, TDE = time-dependent effect
# [21] = biological target: T1, Estrogen receptor (Homo sapiens); assay: Induction of degradation of human ERalpha in MCF7 cells assessed as ERalpha level at 0.1 uM incubated for 6 hrs followed by irradiation for 30 min measured after 16 hrs; type: cell-based; settings: time 22.5 hrs
# [22] = biological target: T1, Estrogen receptor (Homo sapiens); assay: Induction of degradation of human ERalpha in MCF7 cells at 1 uM incubated for 6 hrs followed by irradiation for 30 min measured for 24 hrs; type: cell-based; settings: time 30.5 hrs
# Estrogen receptor [23] = biological target: T2, Estrogen receptor; assay: Induction of degradation of human ERalpha in MCF7 cells irradiated with 460 light for 30 mins; type: cell-based
# Estrogen receptor [24] = biological target: T2, Estrogen receptor; assay: Induction of degradation of human ERalpha in MCF7 cells irradiated with 460 light for 45 mins; type: cell-based
# [25] = biological target: T1, Estrogen receptor (Homo sapiens); assay: Induction of degradation of human ERalpha in MCF7 cells at 0.01 to 0.1 uM irradiated with 460 light for 15 to 60 mins; type: cell-based; settings: dose 0.01-0.1 µM, time 15-60 min
# [26] = biological target: T1, Estrogen receptor (Homo sapiens); assay: Induction of human ERalpha degradation-mediated apoptosis in human MCF7 cells assessed as loss of mitochondrial membrane potential at 0.01 uM irradiated for 45 mins by TMRM fluorescence based cytometric analysis; type: cell-based
# [27] = biological target: T1, Estrogen receptor (Homo sapiens); assay: Induction of human ERalpha degradation-mediated apoptosis in human MCF7 cells assessed as increase in cytochrome c release from mitochondria at 0.01 uM irradiated for 45 mins by ELISA analysis
# [28] = biological target: T1, Estrogen receptor (Homo sapiens); assay: Induction of human ERalpha degradation-mediated apoptosis in human MCF7 cells assessed as increase in expression level of Bax at 0.01 uM by ELISA analysis; type: cell-based
# [29] = biological target: T1, Estrogen receptor (Homo sapiens); assay: Induction of human ERalpha degradation-mediated apoptosis in human MCF7 cells assessed as increase in expression level of Bak at 0.01 uM by ELISA analysis; type: cell-based
# [30] = biological target: T1, Estrogen receptor (Homo sapiens); assay: Induction of human ERalpha degradation-mediated apoptosis in human MCF7 cells assessed as increase in expression level of p53 at 0.01 uM by ELISA analysis; type: cell-based
# [31] = biological target: T1, Estrogen receptor (Homo sapiens); assay: Induction of human ERalpha degradation-mediated apoptosis in human MCF7 cells assessed as increase in expression level of Bcl-2 at 0.01 uM irradiated for 45 min by ELISA analysis; type: cell-based
# [32] = biological target: T1, Estrogen receptor (Homo sapiens); assay: Induction of human ERalpha degradation in human MCF7 cells assessed as increase in response of cell to ABT-263-mediated Bcl-2 inhibition; type: cell-based
# MCF-10A [33] = assay: Cytotoxicity against human MCF-10A cells upto 100 uM under dark condition; type: toxicity, cell-based
# MCF7 [34] = assay: Antiproliferative activity against human MCF7 cells assessed as cell viability at irradiation for 15 mins measured after 72 hrs; type: functional, cell-based; settings: MCF7, light or radiation study
# MCF7 [35] = assay: Antiproliferative activity against human MCF7 cells assessed as cell viability at irradiation for 30 mins measured after 72 hrs; type: functional, cell-based; settings: MCF7, light or radiation study
# MCF7 [36] = assay: Antiproliferative activity against human MCF7 cells assessed as cell viability at irradiation for 45 mins measured after 72 hrs; type: functional, cell-based; settings: MCF7, light or radiation study
# MCF-10A [37] = assay: Cytotoxicity against human MCF-10A cells upto 100 uM assessed as cell viability at irradiation for 15 to 45 mins measured after 72 hrs; type: toxicity, cell-based; settings: time 72.25-72.75 hrs
# MCF7 [38] = assay: Antiproliferative activity against human MCF7 cells assessed as cell viability at irradiation for 15 mins daily for 3 days; type: functional, cell-based; settings: MCF7, light or radiation study
# MCF7 [39] = assay: Antiproliferative activity against human MCF7 cells assessed as cell viability at irradiation for 30 mins daily for 3 days; type: functional, cell-based; settings: MCF7, light or radiation study
# MCF7 [40] = assay: Induction of cell cycle arrest in human MCF7 cells assessed as accumulation of cells at G1 phase after irradiation by propidium iodide based flow cytometry analysis; type: functional; settings: time 15-45 min, TDE = time-dependent effect
# MCF7 [41] = assay: Induction of cell cycle arrest in human MCF7 cells assessed as decrease of cells at S phase after irradiation by propidium iodide based flow cytometry analysis; type: functional; settings: time 15-45 min, TDE = time-dependent effect
# MCF7 [42] = assay: Induction of cell cycle arrest in human MCF7 cells assessed as decrease of cells at G2/M phase after irradiation by propidium iodide based flow cytometry analysis; type: functional; settings: time 15-45 min, TDE = time-dependent effect
# MCF7 [43] = assay: Induction of cell cycle arrest in human MCF7 cells assessed as cells at S phase after irradiation measured after 16 hrs by propidium iodide based flow cytometry analysis; type: functional
# MCF7 [44] = assay: Induction of cell cycle arrest in human MCF7 cells assessed accumulation of cells at G1 phase after irradiation measured after 16 hrs by propidium iodide based flow cytometry analysis; type: functional
# MCF7 [45] = assay: Induction of cell cycle arrest in human MCF7 cells assessed as transition of cells from G1 to S phase after irradiation measured after 24 hrs by propidium iodide based flow cytometry analysis; type: functional
# [46] = biological target: T1, Estrogen receptor (Homo sapiens); assay: Induction of degradation of human ERalpha in human MCF7 cells assessed as decrease in expression of cyclin D1 gene at 24 hrs; type: cell-based
# [47] = biological target: T1, Estrogen receptor (Homo sapiens); assay: Induction of degradation of human ERalpha in human MCF7 cells assessed as decrease in expression of c-MYC gene at 24 hrs; type: cell-based
# MCF7 [48] = assay: Induction of apoptosis in human MCF7 cells assessed as late apoptotic cells at 0.01 to 1 uM irradiated 30 mins for 3 days by annexin V-FITC/PI double staining method; type: functional, cell-based; settings: dose 0.01-1 µM
# MCF7 [49] = assay: Antiproliferative activity against human MCF7 cells in presence of glutathione irradiated daily; type: functional, cell-based
# MCF7 [50] = assay: Antiproliferative activity against human MCF7 cells in presence of dithiothreitol irradiated daily; type: functional, cell-based
# MCF7 [51] = assay: Antiproliferative activity against human MCF7 cells in presence of N-acetyl-L-cysteine irradiated daily; type: functional, cell-based
smiles,measurement,setting,value
Brc1ccc(-c2ccc(N(c3ccccc3)c3ccccc3)cc2)c2nsnc12,Activity,[1],inactive
same,Activity,MCF7 [2],inactive
same,Activity,MCF7 [3],inactive
C[C@]12CC[C@@H]3c4ccc(O)cc4CC[C@H]3[C@@H]1CC[C@@]2(O)C#Cc1ccc(-c2ccc(N(c3ccccc3)c3ccccc3)cc2)c2nsnc12,Activity,MCF7 [4],inactive
same,Activity,[5],inactive
same,Drug uptake,[6],Active
same,Ki,Estrogen receptor [7],0.0728 µM
same,IC50,MCF7 [8],0.022 µM
same,Activity,[9],Active
same,Activity,[10],Active
same,deltaH,[11],-4.39 kcal/mol
same,deltaS,[12],52.2 J/mol/K
same,Activity,[13],Active
same,Activity,[14],Active
same,Activity,[15],Active
same,Activity,[16],Active
same,Activity,[17],inactive
same,Activity,[18],inactive
same,Activity,[19],Active
same,Activity,[20],Tde
same,Activity,[21],90%
same,Activity,[22],Active
same,EC50,Estrogen receptor [23],17 µM
same,EC50,Estrogen receptor [24],0.5 µM
same,Activity,[25],Active
same,Activity,[26],Active
same,Activity,[27],Active
same,Activity,[28],Active
same,Activity,[29],Active
same,Activity,[30],Active
same,Activity,[31],inactive
same,Activity,[32],Active
same,Activity,MCF-10A [33],Non-Toxic
same,IC50,MCF7 [34],8.9 µM
same,IC50,MCF7 [35],6.1 µM
same,IC50,MCF7 [36],5.9 µM
same,Activity,MCF-10A [37],Non-Toxic
same,IC50,MCF7 [38],3.5 µM
same,IC50,MCF7 [39],0.11 µM
same,Activity,MCF7 [40],Tde
same,Activity,MCF7 [41],Tde
same,Activity,MCF7 [42],Tde
same,Activity,MCF7 [43],inactive
same,Activity,MCF7 [44],Active
same,Activity,MCF7 [45],Active
same,Activity,[46],Active
same,Activity,[47],Active
same,Activity,MCF7 [48],Active
same,Activity,MCF7 [49],inactive
same,Activity,MCF7 [50],inactive
same,Activity,MCF7 [51],inactive
